Results taken from patent US20040009921A1, “Methods and compositions for the treatment of cancer” (Allergan, Inc., priority 2002, published 2004).
Entries after “also recorded” stand apart in the source; their conditions may differ.

Assays:
hepatocarcinoma = conditions: experimental and clinical studies; cited from earlier work
β-catenin = test: Western blotting of β-catenin protein in HEK293 cells and stable lines RBC, CAT, RmBC; type: cell-based, human; conditions: for β-catenin stability / degradation, ligand applied alone: HEK293 with β-catenin and RXRα, FIG. 4B
Protocol: (§1) (A) Western blotting analysis of HEK293 cells transfected with a combination of expression vectors for LacZ (2 μg), V5-tagged β-catenin(4 μg), and Flag-tagged RXRα (2 μg) as indicated below the gels. […] RXRα protein was measured using an HRP-conjugated mouse monoclonal antibody against the Flag tag. (B) Western blotting analysis of stable cell line RBC that overexpresses both β-catenin and RXRα. […] (C) Western blotting analysis of stable cell line CAT that overexpresses only β-catenin. […] Endogenous and overexpressed β-catenin were detected using a rabbit polyclonal antibody as indicated by “Total” whereas overexpressed β-catenin was analyzed using a mouse monoclonal antibody against the V5 tag. Endogenous and overexpressed RXRα were detected by a rabbit polyclonal antibody against RXRα, whereas overexpressed RXRα was determined by an HRP-conjugated mouse monoclonal antibody against the Flag tag. (D) Western blotting analysis of HEK293 cells transfected with a fixed amount of β-catenin (4 μg) plus an increasing amount of RXRα as indicated at the top. […] (E) Western blotting analysis of HEK293, CV-1, and Hela cells transfected with 2 μg of RXRα and 4 μg of wild type or mutant β-catenin. α. […] (F) Northern blotting analysis of RBC cells using β-catenin as a probe.
(§2) FIG. 4 Receptor and ligand specificity in degradation of β-catenin by retinoid receptors. HEK293 cells transfected with expression vectors for β-catenin (4 μg) and RXRs (2 μg) or RARs (2 μg) and treated with ligands at concentrations indicated at the top of each gel. Protein levels were detected by Western blotting as shown in this figure. β-catenin and RARs were detected by HRP-conjugated antibodies against their V5 tag. RXRs were detected by HRP-conjugated antibodies against their Flag tag. […] In this experiment, the amount of expression vectors for RXRα and RARs used in transfection was 1 μg.
(§3) HEK293 cells were seeded at a density of […] per dish were seeded into 100-mm dishes and cultured overnight in DMEM containing 10% FBS. Cells were transfected with 1-4 μg of various cDNA or parental expression vectors (8 μg of DNA in total) using Lipofectamine®. Five hours after transfection, cells were fed with fresh culture media DMEM containing 10% charcoal-treated FBS with vehicle DMSO or retinoids prepared in DMSO. After a given time of treatment, cells were harvested and lysed in a buffer containing 1% Nonidet® P-40, 30 mM Tris-HCl (pH7.4), 0.5 mM EDTA (pH 8.0), 150 mM NaCl, 10% glycerol, 1 mM sodium orthovanadate, 40 mM NaF, 0.5 mM phenylmethylsulfonyl fluoride (PMSF) and a cocktail of protease inhibitors (Merck).
(§4) Total cell lysates were homogenized by passing through a QIAshredder® (Qiagen) and cleared from insoluble materials by centriftigation at 12,000 g. Protein concentration was determined using a Bradford total protein assay kit (Bio-Rad). Total cell lysates were electrophoresed using a 4-12% SDS-PAGE gradient gel and transferred to either nitrocellulose or PVDF filter membranes. The membranes were blocked with 10% non-fat milk reconstituted from dairy milk powder in phosphate-buffered saline (PBS) containing 0.1% Tween®-20 (PBST). The membranes were incubated with primary antibodies at room temperature for 2 hours or at 4° C. for overnight. After the removal of unbound antibodies, membranes were incubated with horseradish peroxidase-conjugated secondary antibodies for one hour at room temperature and washed five times with PBST.

RXRα = test: Western blotting of RXRα protein in HEK293 cells and stable lines; type: cell-based, human; conditions: HEK293 with β-catenin and RXRα, FIG. 4B
Protocol: as §1, §2, §3, §4

| SMILES | development of hepatocarcinoma (hepatocarcinoma) | antagonism of the effect of AGN 4204 on degradation of RARs and β-catenin (β-catenin; HEK293 co-expressing RXRα and RARs, with AGN 4204) | β-catenin stability / degradation, ligand applied alone (β-catenin) | β-catenin stability / degradation, ligand applied alone (β-catenin; listed as AGN194310) | RXRα stability, ligand applied alone (RXRα) | β-catenin protein (β-catenin; HEK293 overexpressing RARα) |
| --- | --- | --- | --- | --- | --- | --- |
| CC1=C(/C=C/C(C)=C\C=C\C(C)=C\C(=O)O)C(C)(C)CCC1 [9-cis retinoic acid] | suppress the development of hepatocarcinoma | – | – | – | – | – |
| CCc1ccc(C2=CC(C)(C)Sc3ccc(C#Cc4ccc(C(=O)O)cc4)cc32)cc1 [compound 194310, reference compound] | – | not antagonized | no effect | have no effects | no effect | – |
| C/C(=C\c1ccc(C(=O)O)cc1)c1ccc2c(c1)C(C)(C)CCC2(C)C [TTNPB, reference compound] | – | – | have no effects; also recorded: no effect | – | no effect | a slight decrease |
